Measurements: patent US20070021434A1, “NON-NUCLEOSIDE ANTI-HEPACIVIRUS AGENTS AND USES THEREOF” (Migenix Inc., priority 2005, published 2007)

Target: HCV RdRp (NS5B) (UniProt P26663)
Type: biochemical, hepatitis C virus

Chain of HCV RdRp (NS5B) (P26663 whole entry, looked up): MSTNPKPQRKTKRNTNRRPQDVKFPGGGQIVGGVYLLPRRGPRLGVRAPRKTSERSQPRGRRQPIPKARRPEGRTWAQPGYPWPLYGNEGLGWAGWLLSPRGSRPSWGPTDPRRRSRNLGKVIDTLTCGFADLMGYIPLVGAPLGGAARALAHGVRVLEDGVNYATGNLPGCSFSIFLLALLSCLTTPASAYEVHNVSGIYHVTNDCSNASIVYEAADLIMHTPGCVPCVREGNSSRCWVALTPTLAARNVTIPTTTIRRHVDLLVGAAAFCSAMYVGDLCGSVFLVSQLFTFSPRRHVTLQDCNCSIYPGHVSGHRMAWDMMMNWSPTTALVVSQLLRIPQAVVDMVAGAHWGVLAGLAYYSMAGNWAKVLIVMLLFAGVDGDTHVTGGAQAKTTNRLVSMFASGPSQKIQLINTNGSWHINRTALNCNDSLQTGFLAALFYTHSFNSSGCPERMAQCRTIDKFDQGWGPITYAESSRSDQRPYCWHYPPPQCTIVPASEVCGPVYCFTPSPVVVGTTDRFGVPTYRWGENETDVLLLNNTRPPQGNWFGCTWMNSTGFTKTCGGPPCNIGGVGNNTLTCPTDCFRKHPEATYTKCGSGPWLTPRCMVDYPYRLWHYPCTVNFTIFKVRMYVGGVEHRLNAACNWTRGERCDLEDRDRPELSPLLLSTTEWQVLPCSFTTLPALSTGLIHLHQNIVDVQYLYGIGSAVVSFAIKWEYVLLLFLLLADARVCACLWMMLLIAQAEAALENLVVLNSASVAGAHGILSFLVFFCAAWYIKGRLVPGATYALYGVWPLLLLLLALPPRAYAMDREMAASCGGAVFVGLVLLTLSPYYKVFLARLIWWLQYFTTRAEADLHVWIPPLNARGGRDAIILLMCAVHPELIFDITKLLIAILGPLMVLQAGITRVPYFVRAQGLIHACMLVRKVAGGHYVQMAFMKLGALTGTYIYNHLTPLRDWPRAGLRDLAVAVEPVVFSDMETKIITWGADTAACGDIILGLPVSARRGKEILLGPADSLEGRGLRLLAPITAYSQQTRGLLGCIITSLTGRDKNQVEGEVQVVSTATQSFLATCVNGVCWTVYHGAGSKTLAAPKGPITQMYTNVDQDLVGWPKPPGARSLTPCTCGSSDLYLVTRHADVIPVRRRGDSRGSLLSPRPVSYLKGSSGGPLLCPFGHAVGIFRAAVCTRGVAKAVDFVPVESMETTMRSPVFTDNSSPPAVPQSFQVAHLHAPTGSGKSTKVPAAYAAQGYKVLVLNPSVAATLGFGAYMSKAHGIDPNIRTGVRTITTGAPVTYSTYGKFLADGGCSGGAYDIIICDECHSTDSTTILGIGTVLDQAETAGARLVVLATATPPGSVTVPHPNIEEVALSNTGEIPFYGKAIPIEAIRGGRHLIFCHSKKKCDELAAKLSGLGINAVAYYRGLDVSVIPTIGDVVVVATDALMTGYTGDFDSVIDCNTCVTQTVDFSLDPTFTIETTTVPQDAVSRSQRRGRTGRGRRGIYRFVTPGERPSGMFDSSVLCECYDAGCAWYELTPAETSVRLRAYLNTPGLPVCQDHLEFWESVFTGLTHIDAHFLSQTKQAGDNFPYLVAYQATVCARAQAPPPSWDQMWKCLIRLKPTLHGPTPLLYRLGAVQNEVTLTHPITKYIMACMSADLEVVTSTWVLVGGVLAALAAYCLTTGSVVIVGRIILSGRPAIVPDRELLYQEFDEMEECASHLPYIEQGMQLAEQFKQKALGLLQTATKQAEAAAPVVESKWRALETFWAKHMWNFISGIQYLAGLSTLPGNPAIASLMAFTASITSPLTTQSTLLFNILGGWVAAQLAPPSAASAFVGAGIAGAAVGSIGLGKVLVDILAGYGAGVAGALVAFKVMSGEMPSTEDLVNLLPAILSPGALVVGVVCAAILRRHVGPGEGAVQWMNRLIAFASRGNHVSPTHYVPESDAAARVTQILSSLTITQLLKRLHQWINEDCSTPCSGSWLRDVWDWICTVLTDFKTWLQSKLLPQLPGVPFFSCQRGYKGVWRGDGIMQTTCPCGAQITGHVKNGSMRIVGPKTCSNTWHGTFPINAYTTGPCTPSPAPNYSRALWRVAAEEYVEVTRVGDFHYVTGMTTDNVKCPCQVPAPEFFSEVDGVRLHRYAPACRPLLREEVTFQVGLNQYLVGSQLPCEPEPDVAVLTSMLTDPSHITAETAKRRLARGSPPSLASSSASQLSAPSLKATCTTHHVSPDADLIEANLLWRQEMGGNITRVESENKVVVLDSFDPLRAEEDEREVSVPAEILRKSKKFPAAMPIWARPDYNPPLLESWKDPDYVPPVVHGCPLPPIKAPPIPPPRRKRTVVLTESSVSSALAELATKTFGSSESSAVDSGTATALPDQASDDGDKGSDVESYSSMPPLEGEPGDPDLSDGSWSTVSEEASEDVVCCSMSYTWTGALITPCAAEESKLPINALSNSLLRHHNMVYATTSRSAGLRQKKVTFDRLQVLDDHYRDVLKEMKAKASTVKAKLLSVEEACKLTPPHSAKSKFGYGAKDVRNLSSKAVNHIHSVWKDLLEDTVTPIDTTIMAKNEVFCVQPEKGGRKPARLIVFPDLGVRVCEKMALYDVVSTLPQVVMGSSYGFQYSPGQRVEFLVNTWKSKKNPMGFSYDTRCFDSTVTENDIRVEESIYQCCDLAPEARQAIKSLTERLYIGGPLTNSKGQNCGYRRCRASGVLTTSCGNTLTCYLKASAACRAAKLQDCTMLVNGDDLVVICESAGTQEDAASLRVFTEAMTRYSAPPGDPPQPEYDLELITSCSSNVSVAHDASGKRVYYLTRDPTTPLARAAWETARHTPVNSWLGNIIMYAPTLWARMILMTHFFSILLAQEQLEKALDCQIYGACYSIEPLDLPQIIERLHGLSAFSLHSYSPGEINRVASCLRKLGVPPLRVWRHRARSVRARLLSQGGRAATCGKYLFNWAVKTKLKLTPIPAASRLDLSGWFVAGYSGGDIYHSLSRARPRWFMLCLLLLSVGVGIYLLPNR

Row | SMILES | IC50
1 | CC(C)(C)c1ccc(NC(=O)[C@H](Cc2ccc(CN)cc2)NC(=O)Nc2ccc3c(c2)Cc2ccccc2-3)cc1 [Compound 152, (S)-3-(4-AMINOMETHYL-PHENYL)-N-(4-TERT-BUTYL-PHENYL)-2-[3-(9H-FLUOREN-2-YL)-UREIDO]-PROPIONAMIDE] | < 10 µM
2 | Cc1ccc(NC(=O)[C@H](CCCCN)NC(=O)Nc2cccc(OCc3ccccc3)c2)cc1 [Compound 204, (S)-6-AMINO-2-[3-(3-BENZYLOXY-PHENYL)-UREIDO]-HEXANOIC ACID P-TOLYLAMIDE] | > 50 µM
3 | Cc1ccc(NC(=O)C(CCCC[N+](C)(C)C)NC(=O)OCC2c3ccccc3-c3ccccc32)cc1 (stereo not drawn) [Compound 110] | > 50 µM
4 | CC(C)(C)c1ccc(NC(=O)[C@H](Cc2ccc(CN)cc2)NC(=O)NCc2ccccc2)cc1 [Compound 148, (S)-3-(4-AMINOMETHYL-PHENYL)-2-(3-BENZYL-UREIDO)-N-(4-TERT-BUTYL-PHENYL)-PROPIONAMIDE] | > 50 µM
5 | Cc1ccc(NC(=O)[C@H](CCCCN)NC(=O)COc2cccc(Cl)c2)cc1 [Compound 330, (S)-^6-AMINO-2-[2-(^3-CHLORO-PHENOXY)-ACETYLAMINO]-HEXANOIC ACID P-TOLYLAMIDE] | > 50 µM
6 | CCNCC(=O)NCCCC(NC(=O)OCC1c2ccccc2-c2ccccc21)C(=O)Nc1ccc(C)cc1 [Compound 242, (S)-[4-(2-ETHYLAMINO-ACETYLAMINO)-1-P-TOLYLCARBAMOYL-BUTYL]-CARBAMIC ACID 9H-FLUOREN-9-YLMETHYL ESTER] | < 10 µM
7 | Cc1ccc(NC(=O)C(CCCCN)NC(=O)CN(C)Cc2ccccc2)cc1 [Compound 353, (S)-6-AMINO-2-[2-(BENZYL-METHYL-AMINO)-ACETYLAMINO]-HEXANOIC ACID P-TOLYLAMIDE] | > 50 µM
8 | Cc1ccc(NC(=O)[C@H](CCCCN)NS(=O)(=O)c2cccc3ccccc23)cc1 [Compound 68, (S)-6-AMINO-2-(NAPHTHALENE-1-SULFONYLAMINO)-HEXANOIC ACID P-TOLYLAMIDE] | > 50 µM
9 | Cc1ccc(NC(=O)C(CCCCN)NC(=O)c2c(C)ccc3ccccc23)cc1 [Compound 63, (S)-2-METHYL-NAPHTHALENE-1-CARBOXYLIC ACID (5-AMINO-1-P-TOLYLCARBAMOYL-PENTYL)-AMIDE] | > 50 µM
10 | Cc1ccc(NC(=O)C(NC(=O)OCC2c3ccccc3-c3ccccc32)C(C)O)cc1 [Compound 376, (2+/−,3S)-(2-HYDROXY-1-P-TOLYLCARBAMOYL-PROPYL)-CARBAMIC ACID 9H-FLUOREN-9-YLMETHYL ESTER] | > 50 µM
11 | Cc1ccc(NC(=O)C(CCCCN(C)C)NC(=O)OCC2c3ccccc3-c3ccccc32)cc1 [Compound 124, (S)-(5-DIMETHYLAMINO-1-P-TOLYLCARBAMOYL-PENTYL)-CARBAMIC ACID 9H-FLUOREN-9-YLMETHYL ESTER] | > 50 µM
12 | O=C(N[C@@H](Cc1c[nH]c2ccccc12)C(=O)N(Cc1ccccc1)C1CCCCC1)OCC1c2ccccc2-c2ccccc21 [Compound 49, (S)-[1-(BENZYL-CYCLOHEXYL-CARBAMOYL)-2-(1H-INDOL-3-YL)-ETHYL]-CARBAMIC ACID 9H-FLUOREN-9-YLMETHYL ESTER] | > 50 µM
13 | Cc1ccc(NC(=O)[C@H](CCCCN)NS(=O)(=O)c2ccsc2)cc1 [Compound 399, (S)-6-AMINO-2-(THIOPHENE-3-SULFONYLAMINO)-HEXANOIC ACID P-TOLYLAMIDE] | > 50 µM
14 | O=C(CC1CNCCN1C(=O)NCc1ccc(Cl)c(Cl)c1)Nc1ccc(C2CCCCC2)cc1 (stereo not drawn) [Compound 160, 2-[(4-CYCLOHEXYL-PHENYLCARBAMOYL)-METHYL]-PIPERAZINE-1-CARBOXYLIC ACID 3,4-DICHLORO-BENZYLAMIDE] | 10 to 50 µM
15 | Cc1ccc(NC(=O)C2CCCN2C(=O)OCC2c3ccccc3-c3ccccc32)cc1 [Compound 85, (S)-2-P-TOLYLCARBAMOYL-PYRROLIDINE-1-CARBOXYLIC ACID 9H-FLUOREN-9-YLMETHYL ESTER] | > 50 µM
16 | Cc1ccc(NC(=O)[C@H](CCCCN)NC(=O)Nc2ccc(OCc3cccc([N+](=O)[O-])c3)cc2)cc1 [Compound 275, (S)-6-AMINO-2-{3-[4-(3-NITRO-BENZYLOXY)-PHENYL]-UREIDO}-HEXANOIC ACID P-TOLYLAMIDE] | 10 to 50 µM
17 | NCc1ccc(CNC(=O)[C@@H](NC(=O)OCC2c3ccccc3-c3ccccc32)c2ccccc2)cc1 [Compound 314, (S)-[(4-AMINOMETHYL-BENZYLCARBAMOYL)-PHENYL-METHYL]-CARBAMIC ACID 9H-FLUOREN-9-YLMETHYL ESTER] | 10 to 50 µM
18 | COC(=O)C(Cc1c[nH]c2ccccc12)NC(=O)[C@H](CCCCN)NC(=O)OCC1c2ccccc2-c2ccccc21 (mixture of isomers) [Compound 55, (+/−)-2-[6-AMINO-2-(S)-((9H-FLUOREN-9-YLMETHOXYCARBONYL)AMINO)-HEXANOYL-AMINO]-3-(1H-INDOL-3-YL)-PROPIONIC ACID METHYL ESTER] | > 50 µM
19 | Cc1ccc(NC(=O)[C@H](CCCCN)NC(=O)CNc2cccc(Cl)c2)cc1 [Compound 362, (S)-6-AMINO-2-[2-(3-CHLORO-PHENYLAMINO)-ACETYLAMINO]-HEXANOIC ACID P-TOLYLAMIDE] | > 50 µM
20 | Cc1ccc(NC(=O)C(CCCCN)NC(=O)Nc2cccc(-c3nc4ccccc4o3)c2)cc1 [Compound 257, (S)-6-AMINO-2-[3-(3-BENZOOXAZOL-2-YL-PHENYL)-UREIDO]-HEXANOIC ACID P-TOLYLAMIDE] | > 50 µM

Row | SMILES | IC50
21 | NCCCC[C@H](NC(=O)Nc1ccc(OCc2ccccc2)cc1)C(=O)OCCN [Compound 259, (S)-6-AMINO-2-[3-(4-BENZYLOXY-PHENYL)-UREIDO]-HEXANOIC ACID (2-AMINO-ETHYL)-ESTER] | > 50 µM
22 | Cc1ccc(NC(=O)C(CCCCN)NC(=O)Nc2ccc(-c3ccccc3)cc2)cc1 [Compound 40, (S)-6-AMINO-2-(3-BIPHENYL-4-YL-UREIDO)-HEXANOIC ACID P-TOLYLAMIDE] | 10 to 50 µM
23 | Cc1ccc(NC(=O)CC2CN(C(=O)C(C)N)CCN2C(=O)OCC2c3ccccc3-c3ccccc32)cc1 (stereo not drawn) [Compound 185, 4-(R-2-AMINO-PROPIONYL)-2-(P-TOLYLCARBAMOYL-METHYL)-PIPERAZINE-1-CARBOXYLIC ACID 9H-FLUOREN-9-YLMETHYL ESTER] | > 50 µM
24 | Cc1ccc(NC(=O)C(CCCCN)NC(=O)CCc2c[nH]c3ccccc23)cc1 [Compound 89, (S)-6-AMINO-2-(3-1H-INDOL-3-YL-PROPIONYLAMINO)-HEXANOIC ACID P-TOLYLAMIDE] | > 50 µM
25 | CC(C)NC(=O)[C@H](CCCCN)NC(=O)Nc1ccc(OCc2ccccc2)cc1 [Compound 291, (S)-6-AMINO-2-[3-(4-BENZYLOXY-PHENYL)-UREIDO]-HEXANOIC ACID ISOPROPYLAMIDE] | > 50 µM
26 | Cc1ccc(NC(=O)[C@H](CCCCN)NC(=O)Nc2ccc(OCc3ccc(F)c(F)c3)cc2)cc1 [Compound 288, (S)-6-AMINO-2-{3-[4-(3,4-DIFLUORO-BENZYLOXY)-PHENYL]-UREIDO}-HEXANOIC ACID P-TOLYLAMIDE] | 10 to 50 µM
27 | Cc1ccc(NC(=O)C(CCCCN)NC(=O)C(N)Cc2cccc3ccccc23)cc1 [Compound 61, (S,R)-6-AMINO-2-(2-AMINO-3-NAPHTHALEN-1-YL-PROPIONYLAMINO)-HEXANOIC ACID P-TOLYLAMIDE] | > 50 µM
28 | NCCCC[C@H](NC(=O)Nc1ccc(OCc2ccccc2)cc1)C(=O)Nc1cccc2c1CCC2 [Compound 321, (S)-6-AMINO-2-[3-(4-BENZYLOXY-PHENYL)-UREIDO]-HEXANOIC ACID INDAN-4-YLAMIDE] | < 10 µM
29 | Cc1ccc(NC(=O)[C@@H](CCCCN)NC(=O)NCc2ccc(Cl)cc2)cc1 [Compound 169, (R)-6-AMINO-2-[3-(4-CHLORO-BENZYL)-UREIDO]-HEXANOIC ACID P-TOLYLAMIDE] | > 50 µM
30 | Cc1ccc(NC(=O)[C@H](CCCCN)NC(=O)Nc2ccc(Oc3ccccc3)cc2)cc1 [Compound 41, (S)-6-AMINO-2-[3-(4-PHENOXY-PHENYL)-UREIDO]-HEXANOIC ACID P-TOLYLAMIDE] | > 50 µM
31 | O=C(N[C@@H](Cc1ccccc1)C(=O)Nc1ccc(CN(C(=O)c2ccco2)C2CCCCC2)cc1)OCC1c2ccccc2-c2ccccc21 [Compound 29, (S)-[1-(4-{[CYCLOHEXYL-(FURAN-2-CARBONYL)-AMINO]-METHYL}-PHENYL CARBAMOYL)-2-PHENYL-ETHYL]-CARBAMIC ACID 9H-FLUOREN-9-YLMETHYL ESTER] | > 50 µM
32 | CC(C)(C)OC(=O)NCCCC[C@H](NC(=O)OCC1c2ccccc2-c2ccccc21)C(=O)NCCc1c[nH]c2ccccc12 [Compound 56, (S)-{5-((9H-FLUOREN-9-YLMETHOXYCARBONYL)AMINO)-5-[2-(1H-INDOL-3-YL)-ETHYLCARBAMOYL]-PENTYL}-CARBAMIC ACID TERT-BUTYL ESTER] | > 50 µM
33 | Cc1ccc(NC(=O)[C@H](CCCCN)NC(=O)COc2ccccc2)cc1 [Compound 328, (S)-^6-AMINO-^2-(^2-PHENOXY-ACETYLAMINO)-HEXANOIC ACID P-TOLYLAMIDE] | > 50 µM
34 | Cc1ccc(CNC(=O)NC(CCCCN)C(=O)Nc2ccc(C)cc2)cc1 [Compound 136, (S)-6-AMINO-2-[3-(4-METHYL-BENZYL)-UREIDO]-HEXANOIC ACID P-TOLYLAMIDE] | > 50 µM
35 | NCCCC[C@H](NC(=O)Nc1ccc2c(c1)Cc1ccccc1-2)C(=O)Nc1ccc(C2CCCCC2)cc1 [Compound 226, (S)-6-AMINO-2-[3-(9H-FLUOREN-2-YL)-UREIDO]-HEXANOIC ACID (4-CYCLOHEXYL-PHENYL)-AMIDE] | > 50 µM
36 | CC(C)(C)c1ccc(NC(=O)CN(CCCCN)C(=O)Nc2ccc(OCc3ccccc3)cc2)cc1 [Compound 282, 2-[1-(4-AMINO-BUTYL)-3-(4-BENZYLOXY-PHENYL)-UREIDO]-N-(4-TERT-BUTYL-PHENYL)-ACETAMIDE] | > 50 µM
37 | NCCCC[C@@H](NC(=O)OCC1c2ccccc2-c2ccccc21)C(=O)Nc1ccc(C2CCCCC2)cc1 [Compound 128, (R)-[5-AMINO-1-(4-CYCLOHEXYL-PHENYLCARBAMOYL)-PENTYL]-CARBAMIC ACID 9H-FLUOREN-9-YLMETHYL ESTER] | < 10 µM
38 | N[C@@H](Cc1ccccc1)C(=O)Nc1ccc(CN(C(=O)c2ccco2)C2CCCCC2)cc1 [Compound 10, (S)-FURAN-2-CARBOXYLIC ACID [4-(2-AMINO-3-PHENYL-PROPIONYLAMINO) -BENZYL]-CYCLOHEXYL-AMIDE] | > 50 µM
39 | O=C(Nc1ccc(C2CCCCC2)cc1)C1CNCCN1C(=O)OCC1c2ccccc2-c2ccccc21 (racemic) [Compound 156, (+/−)-2-(4-CYCLOHEXYL-PHENYLCARBAMOYL)-PIPERAZINE-1-CARBOXYLIC ACID 9H-FLUOREN-9-YLMETHYL ESTER] | > 50 µM
